# Active and inactive are the calls of the source.
# Experiments:
# [1] = biological target: Voltage-dependent T-type calcium channel subunit alpha-1H (Homo sapiens, UniProt O95180); format: functional;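 further: channel activity triggered by adding a high calcium stimulation buffer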
# [2] = biological target: Polyadenylate-binding protein 1 (Homo sapiens, UniProt P11940); test: blockers of PABP interaction with poly(A) – biochemical, fluorescence polarization, […] (AID 2014)
# Paired box protein Pax-8 = Paired box protein Pax-8 (Homo sapiens, UniProt Q06710); test: PAX8 transcriptional activity inhibition in RMG-I – RMG-I cells, luciferase, cherry-pick, dose response (AID 687027); format: functional, cell-based;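 further: luciferase reporter driven by Pax8 target thyroperoxidase promoter measured by SteadyGlo luminescence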
# [3] = biological target: Eukaryotic translation initiation factor 4H (Homo sapiens, UniProt Q15056); test: eIF4H binding inhibition – biochemical, uHTS, fluorescence polarization, translation initiation inhibitor project, primary screen (AID 2012)
# [4] = biological target: T1, Dual specificity protein phosphatase 6 (Rattus norvegicus, UniProt Q64346)
# T1 sequence (Q64346 whole entry): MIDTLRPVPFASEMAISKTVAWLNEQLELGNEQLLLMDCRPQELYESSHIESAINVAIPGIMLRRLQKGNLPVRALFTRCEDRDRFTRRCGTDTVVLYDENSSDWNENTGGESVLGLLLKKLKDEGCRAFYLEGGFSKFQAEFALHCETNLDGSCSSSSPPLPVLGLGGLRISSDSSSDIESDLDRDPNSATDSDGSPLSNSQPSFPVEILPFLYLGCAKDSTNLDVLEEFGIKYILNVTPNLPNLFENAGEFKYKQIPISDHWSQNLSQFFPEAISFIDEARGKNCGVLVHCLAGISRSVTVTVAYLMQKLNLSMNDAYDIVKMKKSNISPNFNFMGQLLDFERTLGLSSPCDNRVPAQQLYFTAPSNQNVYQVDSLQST
# [5] = biological target: T1, Dual specificity protein phosphatase 6; format: functional
# [6] = biological target: Glyceraldehyde-3-phosphate dehydrogenase (Homo sapiens, UniProt P04406)
# [7] = biological target: Heat shock 70 kDa protein 1A (Homo sapiens, UniProt P0DMV8); test: inhibition of Hsp70 binding activity – biochemical, fluorescence polarization, SAR follow-up (AID 1072)
# [8] = biological target: T2, Tyrosine-protein phosphatase non-receptor type 7 (Homo sapiens, UniProt P35236); format: functional
# T2 sequence (P35236 whole entry): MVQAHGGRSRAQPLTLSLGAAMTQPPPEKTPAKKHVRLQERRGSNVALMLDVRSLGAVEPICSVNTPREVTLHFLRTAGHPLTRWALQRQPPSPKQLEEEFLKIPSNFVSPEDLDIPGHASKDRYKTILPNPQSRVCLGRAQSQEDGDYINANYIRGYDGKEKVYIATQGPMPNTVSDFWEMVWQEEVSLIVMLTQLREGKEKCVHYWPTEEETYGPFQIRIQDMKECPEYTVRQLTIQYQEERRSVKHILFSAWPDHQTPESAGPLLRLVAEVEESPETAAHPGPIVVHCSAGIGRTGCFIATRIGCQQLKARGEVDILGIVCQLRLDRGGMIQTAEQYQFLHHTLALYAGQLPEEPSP
# [9] = biological target: Heat shock cognate 71 kDa protein (Homo sapiens, UniProt P11142); test: In Vitro Hsc70 Dose Response Fluorescence Polarization Assay. [Related pubchem assays: 1072 ]
# [10] = biological target: T3, Eukaryotic translation initiation factor 2-alpha kinase 3 (Homo sapiens, UniProt Q9NZJ5); test: Counterscreen assay for PERK inhibitors: Dose response cell-based high throughput screening assay to measure inhibition of PERK at 6 hours. [Related pubchem assays: 1522, 1416 ]; format: functional
# T3 sequence (Q9NZJ5 whole entry): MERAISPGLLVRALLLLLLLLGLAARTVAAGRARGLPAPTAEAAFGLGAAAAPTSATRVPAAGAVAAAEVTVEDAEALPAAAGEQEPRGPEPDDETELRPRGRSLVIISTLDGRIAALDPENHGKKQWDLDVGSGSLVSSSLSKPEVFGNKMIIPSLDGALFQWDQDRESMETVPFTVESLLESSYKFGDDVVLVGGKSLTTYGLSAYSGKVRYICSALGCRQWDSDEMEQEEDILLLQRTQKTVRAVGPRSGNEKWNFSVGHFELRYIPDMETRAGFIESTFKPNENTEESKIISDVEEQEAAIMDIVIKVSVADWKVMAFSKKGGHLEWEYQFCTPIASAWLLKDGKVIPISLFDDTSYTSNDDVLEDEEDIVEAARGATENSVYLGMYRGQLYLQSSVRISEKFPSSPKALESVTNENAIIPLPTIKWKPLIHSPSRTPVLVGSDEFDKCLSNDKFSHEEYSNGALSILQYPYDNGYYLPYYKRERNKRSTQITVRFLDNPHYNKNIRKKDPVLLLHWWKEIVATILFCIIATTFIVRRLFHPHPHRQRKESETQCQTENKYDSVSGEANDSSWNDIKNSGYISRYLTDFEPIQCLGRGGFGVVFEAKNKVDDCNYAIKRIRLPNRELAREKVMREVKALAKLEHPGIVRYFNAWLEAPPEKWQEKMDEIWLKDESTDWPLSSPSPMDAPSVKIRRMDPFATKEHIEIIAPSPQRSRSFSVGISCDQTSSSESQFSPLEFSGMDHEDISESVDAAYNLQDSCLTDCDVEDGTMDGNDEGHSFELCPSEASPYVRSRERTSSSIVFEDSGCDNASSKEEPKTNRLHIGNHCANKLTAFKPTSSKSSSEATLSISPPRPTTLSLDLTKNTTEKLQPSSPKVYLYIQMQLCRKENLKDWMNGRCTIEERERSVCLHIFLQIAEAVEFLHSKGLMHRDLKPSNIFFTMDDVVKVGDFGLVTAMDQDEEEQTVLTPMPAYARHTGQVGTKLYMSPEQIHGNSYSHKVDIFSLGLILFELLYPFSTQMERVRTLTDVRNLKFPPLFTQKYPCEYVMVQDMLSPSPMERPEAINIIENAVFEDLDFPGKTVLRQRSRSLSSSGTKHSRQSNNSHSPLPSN
# [11] = biological target: T3, Eukaryotic translation initiation factor 2-alpha kinase 3; test: Dose response cell-based high-throughput screening assay to measure PERK inhibition. [Related pubchem assays: 1416 ]; format: functional
# cells = format: functional, cell-based
# Beta-galactosidase = Beta-galactosidase (Escherichia coli, UniProt Q8VNN2); test: detection-enzyme interference by beta-gal modulators – biochemical, E. coli enzyme, set 3, artefact control for CCR6 antagonist project, dose response (AID 504712); format: functional
# X-box-binding protein 1 = X-box-binding protein 1 (Homo sapiens, UniProt P17861); format: functional, Cricetulus griseus;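 further: confirmatory dose-response counter-screen serving a CHOP assay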
# [12] = biological target: T4, Endoribonuclease toxin MazF (Escherichia coli K-12, UniProt P0AE70); test: activation of MazEF endoribonuclease cleavage – biochemical, fluorescence, single-stranded RNA substrate, uHTS hits, dose response (AID 588481); format: functional
# T4 sequence (P0AE70 whole entry): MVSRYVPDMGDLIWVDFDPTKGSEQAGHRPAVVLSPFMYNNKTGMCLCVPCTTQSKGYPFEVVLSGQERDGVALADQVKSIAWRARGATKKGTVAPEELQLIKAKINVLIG
# H4 = test: Luminescence Cell-Based Dose Response HTS to Identify Activators of 5'UTR Stem-Loop Driven Prion Protein mRNA Translation in H4 Neuroglioblastoma Cells. [Related pubchem assays: 1829 (Project Summary), 1814 (Primary HTS)]; format: functional; conditions: Homo sapiens
# [13] = biological target: T4, Endoribonuclease toxin MazF; test: substrate-only fluorescence increase artefacts – biochemical, single-stranded RNase substrate, counter-screen for MazEF activator project, dose response (AID 588502); format: functional
# HeLa = test: viability loss in HeLa cells – cell-based, 24 h, cherry-picked samples, cytotoxicity control, dose response (AID 504726); format: functional; conditions: Homo sapiens;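 further: potency for cytotoxicity as loss of luminescence signal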
# [14] = Luminescence Cell-Based Dose Response HTS to Identify Activators of Luciferase Translation or Activity in H4 […] Cells. [Related pubchem assays: 1829 (Project Summary), 1814 (Primary HTS)]; format: functional
# [15] = Luminescence Cell-Based Dose Confirmation HTS to Identify Activators of 5'UTR Stem-Loop Driven Alpha-Synuclein mRNA Translation in H4 Neuroglioblastoma Cells. [Related pubchem assays: 1829 (Project Summary), 1814 (Primary HTS)]; format: functional
# [16] = biological target: T5, Oxysterols receptor LXR-beta (Homo sapiens, UniProt P55055); format: functional, cell-based;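 further: agonist activity at LXR measured by a cell-based luminescence readout across a dose range, run as a counterscreen for daf-12 agonists; HEK293 cells with Gal4-LXR fusion and GAL4-driven luciferase reporter; potency for activation of Gal4-LXR reporter so compounds are agonists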
# T5 sequence (P55055 whole entry): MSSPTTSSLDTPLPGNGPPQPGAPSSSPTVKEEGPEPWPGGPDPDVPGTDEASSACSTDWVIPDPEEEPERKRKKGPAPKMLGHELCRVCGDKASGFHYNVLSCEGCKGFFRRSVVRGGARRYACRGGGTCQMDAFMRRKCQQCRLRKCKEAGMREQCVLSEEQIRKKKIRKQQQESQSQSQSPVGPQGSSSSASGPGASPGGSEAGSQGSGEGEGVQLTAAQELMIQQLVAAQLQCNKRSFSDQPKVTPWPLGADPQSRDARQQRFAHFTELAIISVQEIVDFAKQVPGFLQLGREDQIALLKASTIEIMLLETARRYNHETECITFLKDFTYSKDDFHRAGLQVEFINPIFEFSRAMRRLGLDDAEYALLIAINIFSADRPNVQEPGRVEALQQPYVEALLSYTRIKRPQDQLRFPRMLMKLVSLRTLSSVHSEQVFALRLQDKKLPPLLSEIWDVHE
# [17] = biological target: DNA dC->dU-editing enzyme APOBEC-3G (Homo sapiens, UniProt Q9HC16); test: Dose Response confirmation of small molecule APOBEC3G DNA Deaminase Inhibitors via a fluorescence-based single-stranded DNA deaminase assay. [Related pubchem assays (depositor defined):AID493012, AID493028]; format: functional
# Chain of DNA dC->dU-editing enzyme APOBEC-3G (Q9HC16 whole entry): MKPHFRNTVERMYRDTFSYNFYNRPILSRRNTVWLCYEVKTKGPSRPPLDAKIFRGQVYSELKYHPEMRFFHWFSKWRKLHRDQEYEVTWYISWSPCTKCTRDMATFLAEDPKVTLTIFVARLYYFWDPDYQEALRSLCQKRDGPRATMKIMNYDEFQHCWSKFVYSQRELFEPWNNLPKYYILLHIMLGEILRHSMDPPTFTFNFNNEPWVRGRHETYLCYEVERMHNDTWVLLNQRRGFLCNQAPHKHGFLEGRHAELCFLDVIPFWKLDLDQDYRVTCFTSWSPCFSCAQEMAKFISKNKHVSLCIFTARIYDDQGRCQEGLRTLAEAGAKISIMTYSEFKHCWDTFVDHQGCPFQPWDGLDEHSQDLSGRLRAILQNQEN
# Chain of Voltage-dependent T-type calcium channel subunit alpha-1H (O95180 whole entry): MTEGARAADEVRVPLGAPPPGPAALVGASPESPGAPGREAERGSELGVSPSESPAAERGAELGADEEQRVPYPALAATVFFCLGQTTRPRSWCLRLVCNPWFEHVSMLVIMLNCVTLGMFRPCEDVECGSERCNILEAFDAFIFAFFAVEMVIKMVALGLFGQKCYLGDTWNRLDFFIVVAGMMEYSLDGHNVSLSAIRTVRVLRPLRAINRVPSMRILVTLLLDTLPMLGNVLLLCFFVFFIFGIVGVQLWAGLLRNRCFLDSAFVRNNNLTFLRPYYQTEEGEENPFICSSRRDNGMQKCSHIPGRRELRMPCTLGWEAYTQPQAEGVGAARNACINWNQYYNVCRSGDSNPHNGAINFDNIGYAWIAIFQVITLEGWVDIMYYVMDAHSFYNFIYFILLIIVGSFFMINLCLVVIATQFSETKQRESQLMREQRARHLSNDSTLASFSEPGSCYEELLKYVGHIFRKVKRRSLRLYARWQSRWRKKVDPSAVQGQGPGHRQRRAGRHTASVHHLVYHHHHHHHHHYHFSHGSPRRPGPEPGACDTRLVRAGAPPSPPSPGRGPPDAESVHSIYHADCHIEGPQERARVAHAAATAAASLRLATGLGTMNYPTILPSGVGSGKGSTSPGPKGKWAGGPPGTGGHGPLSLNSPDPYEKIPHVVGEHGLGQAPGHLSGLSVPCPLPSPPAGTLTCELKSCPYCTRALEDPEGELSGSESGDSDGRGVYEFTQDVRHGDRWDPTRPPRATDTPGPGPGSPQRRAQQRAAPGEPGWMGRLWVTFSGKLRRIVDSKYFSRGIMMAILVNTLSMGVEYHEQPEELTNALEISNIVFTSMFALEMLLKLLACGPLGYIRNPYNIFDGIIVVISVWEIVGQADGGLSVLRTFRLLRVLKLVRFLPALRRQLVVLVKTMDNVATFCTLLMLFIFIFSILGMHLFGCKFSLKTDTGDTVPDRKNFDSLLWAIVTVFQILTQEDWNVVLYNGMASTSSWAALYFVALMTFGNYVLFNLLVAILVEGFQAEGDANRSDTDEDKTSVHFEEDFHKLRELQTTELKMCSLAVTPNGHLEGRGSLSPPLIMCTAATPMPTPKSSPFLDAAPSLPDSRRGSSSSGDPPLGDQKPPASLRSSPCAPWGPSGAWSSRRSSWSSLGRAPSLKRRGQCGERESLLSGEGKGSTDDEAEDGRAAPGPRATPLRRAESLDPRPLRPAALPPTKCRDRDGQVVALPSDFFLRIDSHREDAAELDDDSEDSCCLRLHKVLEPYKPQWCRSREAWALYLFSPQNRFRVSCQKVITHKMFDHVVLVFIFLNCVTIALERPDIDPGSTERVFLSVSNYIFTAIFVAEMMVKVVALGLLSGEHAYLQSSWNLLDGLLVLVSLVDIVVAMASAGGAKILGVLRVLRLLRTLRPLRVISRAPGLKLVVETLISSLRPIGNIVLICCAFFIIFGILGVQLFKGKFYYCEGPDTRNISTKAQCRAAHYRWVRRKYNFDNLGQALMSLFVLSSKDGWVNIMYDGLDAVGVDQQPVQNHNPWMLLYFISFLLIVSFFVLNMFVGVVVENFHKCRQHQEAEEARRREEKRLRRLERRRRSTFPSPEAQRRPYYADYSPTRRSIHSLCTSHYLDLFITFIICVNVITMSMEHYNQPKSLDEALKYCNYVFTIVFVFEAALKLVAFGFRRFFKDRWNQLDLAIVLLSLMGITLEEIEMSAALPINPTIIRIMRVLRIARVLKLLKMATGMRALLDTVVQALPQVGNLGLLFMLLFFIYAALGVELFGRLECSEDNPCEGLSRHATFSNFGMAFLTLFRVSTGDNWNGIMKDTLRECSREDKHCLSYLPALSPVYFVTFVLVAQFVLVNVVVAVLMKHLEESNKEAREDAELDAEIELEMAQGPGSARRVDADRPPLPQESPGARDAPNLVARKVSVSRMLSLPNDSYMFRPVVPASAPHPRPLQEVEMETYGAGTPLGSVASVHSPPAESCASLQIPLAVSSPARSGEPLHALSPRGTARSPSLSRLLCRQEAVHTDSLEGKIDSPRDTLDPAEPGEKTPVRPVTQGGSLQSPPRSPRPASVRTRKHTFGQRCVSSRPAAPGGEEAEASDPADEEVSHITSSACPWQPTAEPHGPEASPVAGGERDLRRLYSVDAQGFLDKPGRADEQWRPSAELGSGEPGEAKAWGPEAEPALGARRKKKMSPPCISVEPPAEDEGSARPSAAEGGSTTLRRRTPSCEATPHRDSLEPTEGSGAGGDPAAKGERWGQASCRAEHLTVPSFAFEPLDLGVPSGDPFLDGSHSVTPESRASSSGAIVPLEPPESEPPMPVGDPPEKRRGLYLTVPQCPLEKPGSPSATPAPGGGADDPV
# Chain of Heat shock 70 kDa protein 1A (P0DMV8 whole entry): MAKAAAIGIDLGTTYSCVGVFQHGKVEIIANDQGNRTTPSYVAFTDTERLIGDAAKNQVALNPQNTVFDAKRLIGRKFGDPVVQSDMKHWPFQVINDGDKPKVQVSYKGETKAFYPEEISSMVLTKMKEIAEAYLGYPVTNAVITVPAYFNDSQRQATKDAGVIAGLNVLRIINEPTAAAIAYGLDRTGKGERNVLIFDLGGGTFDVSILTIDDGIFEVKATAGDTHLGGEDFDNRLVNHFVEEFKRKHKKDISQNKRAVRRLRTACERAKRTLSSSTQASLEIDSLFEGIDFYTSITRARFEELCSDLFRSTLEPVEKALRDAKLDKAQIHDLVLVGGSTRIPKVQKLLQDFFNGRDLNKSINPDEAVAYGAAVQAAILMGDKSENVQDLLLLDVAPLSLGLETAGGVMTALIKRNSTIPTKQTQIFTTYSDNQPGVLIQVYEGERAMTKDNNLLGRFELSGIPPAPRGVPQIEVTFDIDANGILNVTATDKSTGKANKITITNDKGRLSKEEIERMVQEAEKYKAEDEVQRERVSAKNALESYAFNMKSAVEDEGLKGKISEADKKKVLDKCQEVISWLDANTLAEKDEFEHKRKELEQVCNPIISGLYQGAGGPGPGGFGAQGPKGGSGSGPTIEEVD
# Chain of Heat shock cognate 71 kDa protein (P11142 whole entry): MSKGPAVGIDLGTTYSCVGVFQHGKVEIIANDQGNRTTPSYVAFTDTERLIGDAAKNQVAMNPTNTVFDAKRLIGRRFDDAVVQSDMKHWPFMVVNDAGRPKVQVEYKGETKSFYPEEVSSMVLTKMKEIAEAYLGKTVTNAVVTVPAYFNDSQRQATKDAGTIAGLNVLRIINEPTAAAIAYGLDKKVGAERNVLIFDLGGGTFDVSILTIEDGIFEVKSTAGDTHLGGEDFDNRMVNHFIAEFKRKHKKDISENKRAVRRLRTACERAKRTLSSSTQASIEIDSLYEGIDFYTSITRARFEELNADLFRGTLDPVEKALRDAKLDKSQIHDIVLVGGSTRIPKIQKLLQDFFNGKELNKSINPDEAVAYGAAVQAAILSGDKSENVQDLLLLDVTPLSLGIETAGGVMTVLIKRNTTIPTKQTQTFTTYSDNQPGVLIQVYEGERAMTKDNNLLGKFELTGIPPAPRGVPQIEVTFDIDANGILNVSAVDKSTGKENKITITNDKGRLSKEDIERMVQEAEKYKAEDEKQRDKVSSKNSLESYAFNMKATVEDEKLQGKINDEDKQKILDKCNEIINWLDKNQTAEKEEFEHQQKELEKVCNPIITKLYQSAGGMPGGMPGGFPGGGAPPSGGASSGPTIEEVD
# Chain of Glyceraldehyde-3-phosphate dehydrogenase (P04406 whole entry): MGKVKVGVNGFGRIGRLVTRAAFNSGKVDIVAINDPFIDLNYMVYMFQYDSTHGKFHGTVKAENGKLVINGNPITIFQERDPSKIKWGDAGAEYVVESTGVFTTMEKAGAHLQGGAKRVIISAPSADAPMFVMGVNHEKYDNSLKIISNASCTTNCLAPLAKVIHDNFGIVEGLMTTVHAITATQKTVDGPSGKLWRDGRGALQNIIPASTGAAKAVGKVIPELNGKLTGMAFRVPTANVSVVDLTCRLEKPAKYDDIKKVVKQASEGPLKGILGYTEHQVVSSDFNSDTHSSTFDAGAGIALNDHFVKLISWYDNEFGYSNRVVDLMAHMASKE
# Chain of X-box-binding protein 1 (P17861 whole entry): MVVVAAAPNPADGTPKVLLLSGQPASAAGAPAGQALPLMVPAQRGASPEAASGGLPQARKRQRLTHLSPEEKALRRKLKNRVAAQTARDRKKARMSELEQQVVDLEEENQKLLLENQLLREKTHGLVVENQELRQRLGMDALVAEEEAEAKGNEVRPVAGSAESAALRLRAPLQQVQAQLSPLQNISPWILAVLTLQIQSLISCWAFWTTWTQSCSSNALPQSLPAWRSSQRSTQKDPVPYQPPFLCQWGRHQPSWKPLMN
# Chain of Paired box protein Pax-8 (Q06710 whole entry): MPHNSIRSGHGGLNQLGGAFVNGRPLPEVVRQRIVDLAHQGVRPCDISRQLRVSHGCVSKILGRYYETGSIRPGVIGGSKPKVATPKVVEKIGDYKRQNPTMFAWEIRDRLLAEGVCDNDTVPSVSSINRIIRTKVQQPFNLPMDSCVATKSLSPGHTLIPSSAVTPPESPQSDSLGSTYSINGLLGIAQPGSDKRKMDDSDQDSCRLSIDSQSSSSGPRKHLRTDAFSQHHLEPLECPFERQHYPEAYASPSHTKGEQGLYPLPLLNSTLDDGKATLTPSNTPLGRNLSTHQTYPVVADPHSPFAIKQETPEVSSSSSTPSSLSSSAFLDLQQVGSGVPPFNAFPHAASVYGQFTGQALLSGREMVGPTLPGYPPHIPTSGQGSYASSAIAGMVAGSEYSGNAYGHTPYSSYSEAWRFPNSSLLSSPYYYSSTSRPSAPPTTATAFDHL
structure (smiles),measurement,setting,value
Cn1cccc1Cc1nnc(SCC(=O)Nc2ccc(F)cc2F)n1-c1ccc(F)cc1,EC50,[1],4.6 µM (active)
C[C@H](NC(=O)c1ccco1)C(=O)Nc1cccc([N+](=O)[O-])c1,IC50,[2],> 100 µM (inactive)
same,AC50,Paired box protein Pax-8,59.2 µM (active)
same,IC50,[3],> 100 µM (inactive)
C[C@@H](C(=O)Nc1ccc2ccccc2c1)[C@@H]1C[C@@]1(C)[C@@H](NC(=O)c1ccccc1)c1ccccc1,EC50,[1],2.95 µM (active)
CC(C)COC(=O)c1ccc2c(c1)C1C=CCC1C(C(=O)O)N2 (stereo unspecified),IC50,[4],48.2 µM (active)
same,IC50,[5],55.8 µM (active)
same,IC50,[6],87.3 µM (active)
same,IC50,[7],32.5 µM (active)
same,IC50,[8],44.8 µM (active)
same,IC50,[9],164 µM (active)
Cc1ccc(-c2cc(N)n(-c3ccc(F)cc3)n2)cc1,EC50,[10],> 55.7 µM (not active)
same,EC50,[11],> 55.7 µM (not active)
same,EC50,cells,> 350 µM (not active)
CC(C)Cc1cc(C(=O)NCc2cccs2)no1,EC50,[10],> 55.7 µM (not active)
same,EC50,[11],> 55.7 µM (not active)
CC(C)c1ccc(O)c(NC(=S)NC(=O)c2ccc3c(c2)OCO3)c1,IC50,Beta-galactosidase,> 66.6 µM (inactive)
CC(C)Cn1c2c(c(=O)[nH]c1=O)C(C(F)(F)F)(C(F)(F)F)NC(CCC1CCCCC1)=N2,Absolute IC50 (XBP1),X-box-binding protein 1,10 µM
NS(=O)(=O)c1ccc2c(c1)C1C=CCC1C(C(=O)O)N2 (stereo unspecified),IC50,[4],> 100 µM (inactive)
same,IC50,[5],> 100 µM (inactive)
same,IC50,[6],62.2 µM (active)
same,IC50,[7],1.97 µM (active)
same,IC50,[8],47.3 µM (active)
same,IC50,[9],> 100 µM (not active)
Oc1[nH]c2ccccc2c1N=Nc1ccccc1F,EC50,[12],> 99 µM (inactive)
same,EC50,H4,> 120 µM (not active)
same,EC50,[13],31.7 µM (inactive)
same,AC50,HeLa,100 µM (active)
same,EC50,[14],8.29 µM (active)
same,EC50,[15],4.39 µM (active)
same,EC50,[16],> 67.6 µM (inactive)
CSc1nc2c(c(=O)[nH]c(=O)n2C)n1Cc1ccc(Cl)cc1,IC50,[17],65.2 µM (active)
O=c1c2cccc(Cl)c2nc2n1Cc1ccccc1-2,EC50,H4,> 120 µM (not active)
same,IC50,[17],27.4 µM (active)
same,EC50,[14],64.2 µM (active)
same,EC50,[15],23.4 µM (active)

# Reference: ChEMBL document CHEMBL1201862, “PubChem BioAssay data set” (2004)
